Calls of active or inactive are those of the source. The calls are words filed in the database; no cut-off is given here.
Assays:
Type in all cases: nucleic-acid assay
[1] = target: Nucleic Acid; assay: Binding affinity to 3'-dangling end of RNA1 ligand binding site 1 by isothermal titration calorimetry
[2] = target: Nucleic Acid; assay: Binding affinity to 3'-dangling end of RNA1 by fluorescence spectroscopy analysis in absence of Triton X-100
[3] = target: Nucleic Acid; assay: Binding affinity to 3'-dangling end of RNA1 ligand binding site 2 by isothermal titration calorimetry
[4] = system: Nucleic Acid; assay: Binding affinity to 3'-dangling end of RNA1 by UV reverse titration method
[5] = target: Nucleic Acid; assay: Binding affinity to 3'-dangling end of RNA1 by fluorescence spectroscopy analysis in presence of Triton X-100
[6] = target: Nucleic Acid; assay: Binding affinity to 3'-dangling end of RNA1 ligand binding site 3 by isothermal titration calorimetry
[7] = system: Nucleic Acid; assay: Binding affinity to 3'-dangling end of RNA1 at 7.5 to 50 uM by CD spectroscopy
[8] = target: Nucleic Acid; assay: Binding affinity to 3'-dangling end of RNA1 ligand binding site 4 by isothermal titration calorimetry

Kd [1]: 10.8 µM
Kd [2]: 8.2 µM
Kd [3]: 9.2 µM
Activity [4]: Active
Kd [5]: 12 µM
Kd [6]: 8.1 µM
Activity [7]: Active
Kd [8]: 12.5 µM
Compound: OC(CNc1ccnc2cc(Cl)ccc12)CNc1ccnc2cc(Cl)ccc12

Reference: ChEMBL document CHEMBL1157118, “Cooperative binding of a quinoline derivative to an RNA stem loop containing a dangling end” (Bioorg Med Chem Lett, 2010)
